Results on two compounds are retold here after US20130143830A1, “AGENTS FOR COMBATING AND REDUCING THE IRRITATING ACTION OF SURFACTANTS IN COMPOSITIONS TO BE APPLIED TO THE SKIN FOR CARE OR CLEANSING OF THE FACE AND BODY” (GIULIANI S.P.A, priority 2008, published 2013).

The test system of data set [1] is EPISKIN model of reconstructed human epidermis. The data set is described as follows: MTT cell viability test on EPISKIN model (in vitro skin irritation). It is filed as cell-based. Here is the method:
2.1.1 EPISKIN™ model (EPISKIN-SM™), EPISKIN SNC Lyon, France, is a model of reconstructed human epidermis. The human keratinocytes are seeded on a dermal substitute consisting of a collagen type I matrix coated with type IV collagen. A highly differentiated and stratified epidermis model is obtained after a 13-day culture period comprising the basal, suprabasal, spinous and granular layers and a functional stratum corneum (Tinois et al., 1984). The model is used in the skin irritation applying the substances being examined at topical level to the epidermis and subsequently assessing cell viability.
10 μl of the solutions were applied to the surface of the epidermis for 15 minutes, followed by 42 hours of recovery.
VitroScreen is implementing a quality system in compliance with the GLP regulations (2004/9/CE and 2004/10/CE) in preparation of the GLP Audit and relative certification. The methods utilized in the study were entered in the list of VitroScreen methods. Following a validation study coordinated by ECVAM the Episkin test system was validated by the ESAC (27/04/07); this uses a model of epidermis reconstructed in vitro—EPISKIN—to assess skin irritation produced by chemical substances for hazard identification and R38 classification: cell viability is quantified after 15 min of exposure +42 h of recovery. Quantification of IL-1α with the ELISA method is part of the validated method for skin irritation as it allows the substances to be distinguished even when there is no decrease in cell viability.
The MTT test is considered an international standard for quantification of cytotoxicity (ISO 10993-5). The method allows quantification of the cytotoxic effect produced by the product through measuring cell viability. Cytotoxicity is quantified by measuring the decrease in cell viability compared to an untreated negative control. It is based on the metabolizing reaction which takes place between the salt of tetrazolium (MTT) and the mitochondrial enzymes (succinate dehydrogenase) after contact with the product for the various treatment times: only the viable cell can transform the salt of tetrazolium into the insoluble derivative (Formazan), reaction which is highlighted by the formation of a purple color at the bottom of the insert.
Metabolization of the salt takes place at the level of the basal cells of the epithelium in the area above the polycarbonate support.
The purple colored derivative is extracted in isopropanol and quantified spectrophotometrically at 570 nm.
At the end of treatment and post-incubation with the substances being examined, the EPISKIN models are transferred to 12 well plates, filled with 2 ml of MTT (used at the concentration of 0.3 mg/ml in the assay medium) and the test is conducted for 3 hours at 37° C., 5% CO2, 90% humidity.
The formazan is extracted from the tissue in Eppendorf tubes with 500 μl of acidified isopropanol (0.04 N HCL final concentration) with incubation in the dark under stirring for 4 hours at room temperature.
10 μl of the substances being examined, of the positive (SDS 5%) and negative (sterile water) control are applied to the surface of the epidermis.
The treated tissues are maintained at room temperature for 15 minutes (±0.5 minutes).
At the end of incubation the tissues are washed 2-3 times with PBS and placed in an incubator with fresh maintenance medium for 42 hours of recovery.
The TEER is measured post-treatment and the MTT test is then conducted for 3 hours at 37° C. and formazan is subsequently extracted for 4 hours as described in the methods.
At the end of the test 2×200 μl of sample for each well are transferred to 96 well plates and read spectrophotometrically at 570 nm.
The optical densities are recorded directly by the Microplate autoreader (TECAN INFINITE M-200), exported to Excel files and the cell viability % is calculated compared to the optical density of the negative control. […]
For orientation: Formazan colour is commonly taken as a measure of viable cells.

Data set [2] is described as follows: pH of the prepared solutions. It counts as physicochemical. Particulars: positive control solution. Here is the method: The solutions are prepared and the pH is measured.

Take `CC1(C)[C@@H](O[C@H]2O[C@H](C(=O)O)[C@@H](O)[C@H](O)[C@H]2O[C@@H]2O[C@H](C(=O)O)[C@@H](O)[C@H](O)[C@H]2O)CC[C@]2(C)[C@H]3C(=O)C=C4[C@@H]5C[C@@](C)(C(=O)O)CC[C@]5(C)CC[C@@]4(C)[C@]3(C)CC[C@@H]12.N` [MAG, monoammonium glycyrrhizinate]: the “irritation classification by predictive model” value in data set [1] (MAG at 2%) is recorded as “non-irritant”; in data set [1] (MAG at 2%, listed as Mono-Ammonium Glycyrrhizate) it was “NON IRRITANT (NI)”; in data set [1] (MAG at 5%), “non-irritant”; in data set [1] (MAG at 5%, listed as Mono-Ammonium Glycyrrhizate), “NON IRRITANT (NI)”. Moreover, the cytotoxic effects entry in data set [1] (MAG at 2%, 15 min exposure + 42 h recovery) was “no cytotoxic effects”. Besides, the loss of viability in data set [1] (MAG at 5%, 15 min exposure + 42 h recovery) came out at 20%.
As to `CCCCCCCCCCCCOS(=O)(=O)[O-].[Na+]` [SDS 5%, sodium dodecyl sulfate, reference compound], in data set [2], the pH was found to be 5.80. The reduction in viability in data set [1] (SDS 5%, 10 μl, 15 min exposure + 42 h recovery, vs negative control) was 80%. Further, the “irritation classification by predictive model” value in data set [1] (solution as tested, 15 min exposure + 42 h recovery, cut-off 50% viability, sulfate) is on record as “R38 irritant”.
